This is an account of results in US8138119B2, “Alkoxyalkyl spirocyclic tetramic acids and tetronic acids” (Bayer Cropscience AG, priority 2005, dated 2012).

The data set is described as follows: Determination of the log P values by HPLC on a reversed-phase column (C18). It is filed as physicochemical. On the procedure: The log P values given in the table were determined in accordance with EEC Directive 79/831 Annex V.A8 by HPLC (High Performance Liquid Chromatography) on a reversed-phase column (C18). Temperature: 43° C.
Mobile phases for the determination in the acidic range (pH 2.3): 0.1% aqueous phosphoric acid, acetonitrile; linear gradient from 10% acetonitrile to 90% acetonitrile
Calibration was carried out using unbranched alkan-2-ones (with 3 to 16 carbon atoms) whose log P values are known (determination of the log P values by the retention times using linear interpolation between two successive alkanones).

The mark [1] stands for this setting: compounds of the formula (III), cis/trans isomer mixture, first value of the cell.
Setting [2] is: compounds of the formula (III), cis/trans isomer mixture, second value of the cell.
[3] abbreviates: compounds of the formula (I-2-a), m.p. ° C./log P.

The term log P denotes the decadic logarithm of the partition coefficient of the neutral form, usually between octanol and water. On to `CCOC(=O)C1(OC(=O)Cc2cc(-c3ccc(Cl)cc3)ccc2C)CCCC(COC)C1` (mixture of isomers) [III-2], for which the log partition coefficient (log P) is reported as 5.50 under setting [1] and 5.58 under setting [2].

With `CCOC(=O)C1(OC(=O)Cc2c(C)cc(Br)cc2C)CCCC(COC)C1` (mixture of isomers) [III-3], the “log P” value was 4.94 under setting [1] and 5.05 under setting [2]. In the same order, the values of `CCOC(=O)C1(OC(=O)Cc2c(C)cc(Cl)cc2C)CCCC(COC)C1` (mixture of isomers) [III-4] are 4.82 and 4.93. In the same order, the values of `CCOC(=O)C1(OC(=O)Cc2cc(C)c(C)cc2C)CCCC(COC)C1` (mixture of isomers) [III-5] are 4.85 and 4.93. Turning to `CCOC(=O)C1(OC(=O)Cc2c(C)cc(C)cc2C)CCCC(COC)C1` (mixture of isomers) [III-6], the “log P” value by setting is: under setting [1], 4.85; under setting [2], 4.94.

For `CCOC(=O)C1(OC(=O)Cc2c(CC)cc(Br)cc2CC)CCCC(COC)C1` (mixture of isomers) [III-7], the lipophilicity (log P) runs as follows: under setting [1], 5.52; under setting [2], 5.62. Turning to `CCOC(=O)C1(OC(=O)Cc2cc(-c3ccc(Cl)cc3)ccc2C)CCC(COC)CC1` (mixture of isomers) [III-8], the “log P” value was found to be 5.36 under setting [1] and 5.49 under setting [2]. For `CCOC(=O)C1(OC(=O)Cc2c(C)cc(Br)cc2C)CCC(COC)CC1` (mixture of isomers) [III-9] the same measures were 4.88 and 5.01. In the same order, the values of `CCOC(=O)C1(OC(=O)Cc2c(C)cc(Cl)cc2C)CCC(COC)CC1` (mixture of isomers) [III-10] are 4.76 and 4.90. On to `CCOC(=O)C1(OC(=O)Cc2cc(C)c(C)cc2C)CCC(COC)CC1` (mixture of isomers) [III-11], for which the “log P” value stood at 4.74 under setting [1] and 4.85 under setting [2]. In the same order, the values of `CCOC(=O)C1(OC(=O)Cc2c(C)cc(C)cc2C)CCC(COC)CC1` (mixture of isomers) [III-12] are 4.76 and 4.88. For `CCOC(=O)C1(OC(=O)Cc2c(CC)cc(Br)cc2CC)CCC(COC)CC1` (mixture of isomers) [III-13] the same measures were 5.52 and 5.65.

As for `CCOC(=O)C1(OC(=O)Cc2c(CC)cc(C)cc2CC)CCC(COC)CC1` (mixture of isomers) [III-14], the “log P” value came to 5.39 under setting [1] and 5.51 under setting [2]. For `CCOC(=O)C1(OC(=O)Cc2cc(C)c(-c3ccc(Cl)cc3)cc2C)CCC(COC)CC1` (mixture of isomers) [III-15] the same measures were 5.90 and 5.98. In the same order, the values of `CCOC(=O)C1(OC(=O)Cc2cc(-c3ccc(Cl)cc3)ccc2Cl)CCC(COC)CC1` (mixture of isomers) [III-16] are 5.52 and 5.67. In the same order, the values of `CCOC(=O)C1(OC(=O)Cc2c(C)ccc(-c3ccc(Cl)cc3)c2C)CCC(COC)CC1` (mixture of isomers) [III-17] are 5.86 and 5.96. For `CCOC(=O)C1(OC(=O)Cc2cc(-c3ccc(Cl)cc3)ccc2C)CCCC(CCOC)C1` (mixture of isomers) [III-18], the “log P” value reads like this: under setting [1], 5.68; under setting [2], 5.80. Take `CCOC(=O)C1(OC(=O)Cc2c(C)cc(Br)cc2C)CCCC(CCOC)C1` (mixture of isomers) [III-19]: the “log P” value is, setting by setting: under setting [1], 5.13; under setting [2], 5.26. Take `CCOC(=O)C1(OC(=O)Cc2c(C)cc(Cl)cc2C)CCCC(CCOC)C1` (mixture of isomers) [III-20]: the “log P” value by setting is: under setting [1], 5.00; under setting [2], 5.11.

Turning to `CCOC(=O)C1(OC(=O)Cc2cc(C)c(C)cc2C)CCCC(CCOC)C1` (mixture of isomers) [III-21], the “log P” value reads like this: under setting [1], 4.94; under setting [2], 5.05. In the same order, the values of `CCOC(=O)C1(OC(=O)Cc2c(C)cc(C)cc2C)CCCC(CCOC)C1` (mixture of isomers) [III-22] are 4.94 and 5.05. For the compound `CCOC(=O)C1(OC(=O)Cc2c(CC)cc(Br)cc2CC)CCCC(CCOC)C1` (mixture of isomers) [III-23], the “log P” value reads like this: under setting [1], 5.69; under setting [2], 5.81. For `CCOC(=O)C1(OC(=O)Cc2c(CC)cc(C)cc2CC)CCCC(CCOC)C1` (mixture of isomers) [III-24] the same measures were 5.56 and 5.66. For `CCOC(=O)C1(OC(=O)Cc2cc(C)c(-c3ccc(Cl)cc3)cc2C)CCCC(CCOC)C1` (mixture of isomers) [III-25] the same measures were 6.03 and 6.12. In the same order, the values of `CCOC(=O)C1(OC(=O)Cc2cc(-c3ccc(Cl)cc3)ccc2Cl)CCCC(CCOC)C1` (mixture of isomers) [III-26] are 5.67 and 5.82. Consider `CCOC(=O)C1(OC(=O)Cc2c(C)ccc(-c3ccc(Cl)cc3)c2C)CCCC(CCOC)C1` (mixture of isomers) [III-27], for which the “log P” value stood at 6.02 under setting [1] and 6.09 under setting [2]. `CCOC(=O)C1(OC(=O)Cc2cc(-c3ccc(Cl)cc3)ccc2C)CCC(CCOC)CC1` (mixture of isomers) [III-28]: the “log P” value under setting [1] was determined as 5.69 and the “log P” value under setting [2] is on record as 5.81. In the same order, the values of `CCOC(=O)C1(OC(=O)Cc2c(C)cc(Br)cc2C)CCC(CCOC)CC1` (mixture of isomers) [III-29] are 5.13 and 5.29.

On to `CCOC(=O)C1(OC(=O)Cc2c(C)cc(Cl)cc2C)CCC(CCOC)CC1` (mixture of isomers) [III-30], for which the “log P” value is given as 5.00 under setting [1] and 5.15 under setting [2]. In the same order, the values of `CCOC(=O)C1(OC(=O)Cc2cc(C)c(C)cc2C)CCC(CCOC)CC1` (mixture of isomers) [III-31] are 5.00 and 5.09.

For the compound `CCOC(=O)C1(OC(=O)Cc2c(CC)cc(Br)cc2CC)CCC(CCOC)CC1` (mixture of isomers) [III-32], the “log P” value under setting [1] amounted to 5.75 and the “log P” value under setting [2] is 5.90. In the same order, the values of `CCOC(=O)C1(OC(=O)Cc2c(CC)cc(C)cc2CC)CCC(CCOC)CC1` (mixture of isomers) [III-33] are 5.64 and 5.75. For `CCOC(=O)C1(OC(=O)Cc2cc(C)c(-c3ccc(Cl)cc3)cc2C)CCC(CCOC)CC1` (mixture of isomers) [III-34] the same measures were 6.14 and 6.19. In the same order, the values of `CCOC(=O)C1(OC(=O)Cc2cc(-c3ccc(Cl)cc3)ccc2Cl)CCC(CCOC)CC1` (mixture of isomers) [III-35] are 5.70 and 5.85. On to `COCC1CCCC2(C1)OC(=O)C(c1cc(C)c(C)cc1C)=C2O` (stereo not shown) [1-2-a-5], for which the “log P” value under setting [3] was “oil/2.78”.

For `COCC1CCCC2(C1)OC(=O)C(c1cc(-c3ccc(Cl)cc3)ccc1C)=C2O` (stereo not shown) [Example I-2-a-2], the log partition coefficient (log P) under setting [3] is listed as “oil/3.58”.

With `CCc1cc(Br)cc(CC)c1C1=C(O)C2(CCCC(COC)C2)OC1=O` (stereo not shown) [Example I-2-a-7], the “log P” value under setting [3] is “oil/3.44”.

As to `COCC1CCC2(CC1)OC(=O)C(c1cc(C)c(C)cc1C)=C2O` (stereo not shown) [Example I-2-a-11], under setting [3], the “log P” value is “oil/2.72”. In the case of `COCC1CCC2(CC1)OC(=O)C(c1c(C)cc(C)cc1C)=C2O` (stereo not shown) [Example I-2-a-12], the “log P” value under setting [3] was “oil/2.69”. Same read-out and setting: next, `CCc1cc(Br)cc(CC)c1C1=C(O)C2(CCC(COC)CC2)OC1=O` (stereo not shown) [Example I-2-a-13]: “oil/3.38”; `CCc1cc(C)cc(CC)c1C1=C(O)C2(CCC(COC)CC2)OC1=O` (stereo not shown) [Example I-2-a-14]: “oil/3.19”; `COCCC1CCCC2(C1)OC(=O)C(c1cc(-c3ccc(Cl)cc3)ccc1C)=C2O` (stereo not shown) [Example I-2-a-18]: “oil/3.75”. Regarding `COCCC1CCCC2(C1)OC(=O)C(c1c(C)cc(Br)cc1C)=C2O` (stereo not shown) [Example I-2-a-19], the lipophilicity (log P) under setting [3] is given as “oil/3.13”. On the same count and under the same terms, the entry for `COCCC1CCCC2(C1)OC(=O)C(c1c(C)cc(Cl)cc1C)=C2O` (stereo not shown) [Example I-2-a-20] is “oil/3.03”; for `COCCC1CCCC2(C1)OC(=O)C(c1cc(C)c(C)cc1C)=C2O` (stereo not shown) [Example I-2-a-21] it is “oil/2.96”. The same measure, in the same setting: the entry for `COCCC1CCCC2(C1)OC(=O)C(c1c(C)cc(C)cc1C)=C2O` (stereo not shown) [Example I-2-a-22] is “oil/2.94”; for `CCc1cc(Br)cc(CC)c1C1=C(O)C2(CCCC(CCOC)C2)OC1=O` (stereo not shown) [Example I-2-a-23] it is “oil/3.63”. Still for that read-out and setting: next, `CCc1cc(C)cc(CC)c1C1=C(O)C2(CCCC(CCOC)C2)OC1=O` (stereo not shown) [Example I-2-a-24]: “oil/3.44”; `COCCC1CCCC2(C1)OC(=O)C(c1cc(C)c(-c3ccc(Cl)cc3)cc1C)=C2O` (stereo not shown) [Example I-2-a-25]: “oil/4.03”.

With `COCCC1CCCC2(C1)OC(=O)C(c1cc(-c3ccc(Cl)cc3)ccc1Cl)=C2O` (stereo not shown) [Example I-2-a-26], the log partition coefficient (log P) under setting [3] is given as “oil/3.68”.

Regarding `COCCC1CCC2(CC1)OC(=O)C(c1cc(-c3ccc(Cl)cc3)ccc1C)=C2O` (stereo not shown) [Example I-2-a-28], the “log P” value under setting [3] is given as “oil/3.71”. Still for that read-out and setting: the entry for `COCCC1CCC2(CC1)OC(=O)C(c1c(C)cc(Br)cc1C)=C2O` (stereo not shown) [Example I-2-a-29] is “oil/3.10”; for `COCCC1CCC2(CC1)OC(=O)C(c1c(C)cc(Cl)cc1C)=C2O` (stereo not shown) [Example I-2-a-30] it is “oil/3.00”. The same measure, in the same setting: next, `COCCC1CCC2(CC1)OC(=O)C(c1cc(C)c(C)cc1C)=C2O` (stereo not shown) [Example I-2-a-31]: “oil/2.92”.
